Measured values published in patent US20070293485A1, “DRUG ADMINISTRATION METHODS” (priority 2006, published 2007).
Entries after “also recorded” stand apart in the source; their conditions may differ.

What was measured:
Drug resistance in vitro = type: cell-based
human blood cells [1] = assay: Human whole blood spiked with Compound A in vitro: binding to blood cells; type: in vitro ADME
Procedure: (§1) To test if this binding also occurs with human blood cells, an in vitro experiment was conducted with human whole blood spiked with Compound A concentrations of 1, 5, 10, and 50 μM. […] Results of the analysis of whole blood and plasma are illustrated in FIG. 7. The permanence of the binding was studied by attempting to “wash off” bound drug with fresh plasma. […] This reversible binding to blood cells is the reason for the observed extended plasma terminal half life. The ability of fresh plasma to wash off Compound A from blood cells after one, two and four washes is illustrated in FIGS. 8, 9, and 10, respectively.

[2] = tested on: protein-rDNA quadruplex interaction; assay: Inhibition of rRNA biogenesis in cancer cells; type: cell-based
malignant cells = assay: Apoptosis in malignant cells in vitro; type: cell-based
human blood cells [3] = assay: Wash off of bound drug from blood cells with fresh plasma; type: in vitro ADME; conditions: one, two and four washes
Procedure: as §1

advanced solid tumors = assay: Phase I study, infusion up to six hours: response by RECIST, disease stabilization; type: in vivo, human
Procedure: (§2) Eligible patients with advanced solid tumors received Compound A in successive dose cohorts at: 10, 20, 40, 80, 160, 240, 360 and 480 mg/m^2. Drug is administered by daily intravenous infusion on the first five consecutive days of a three week cycle and the infusion duration has varied from one hour to six hours. Response by RECIST is determined after every 2 cycles.

[4] = Phase I study: pharmacokinetics in plasma, whole blood and urine of patients; type: in vivo, human
Source text: Analysis has determined that Compound A whole blood concentration is nearly ten times that of plasma concentration. The reversible binding and subsequent slow release of Compound A from blood cells provides a “reservoir” effect to extend the Compound A plasma terminal half life. Further details of these observations are described in an Example that follows. This pharmacokinetic property allows consideration of a less frequent dosing schedule, and a phase I study of weekly intravenous Compound A administration is being implemented.
Pharmacokinetic analyses of plasma samples collected on Day 1 and Day 5 of dosing for every patient were performed in cohort batches during the conduct of the phase I study of Compound A in refractory solid tumors and lymphomas (Protocol C3-05-001). […] Saturation of elimination was an unlikely cause of the extended half life because there was no apparent accumulation of drug in plasma.
The pharmacokinetic sampling procedure in the phase I clinical trial was amended to allow for whole blood and plasma to be collected from study patients. When these samples were analyzed, the binding of Compound A to blood cells was again evident.

[5] = Phase I study, one or two hour infusion: plasma pharmacokinetics; type: in vivo, human
Procedure: The objectives of the study described hereafter are to determine the maximum tolerated dose (MTD) and dose limiting toxicities (DLTs), to establish the pharmacokinetics (PKs), and to determine the recommended dose for further clinical development of Compound A.
(§3) Eligible patients with advanced solid tumors or lymphomas whose tumors had progressed on, or for whom there are no standard therapies, receive Compound A in successive dose cohorts at: 10, 20, 40, 80 and 160 mg/m^2. Dosing is by one or two hour intravenous infusion daily for five consecutive days repeated on a three week cycle. […] Response by RECIST is determined after every 2 cycles.

[6] = tested on: advanced solid tumors or lymphomas; assay: Phase I study, one or two hour infusion: response by RECIST, disease stabilization; type: in vivo, human
Procedure: as §3

[7] = tested on: patients with advanced solid tumors or lymphomas; assay: Phase I study, one or two hour intravenous infusion daily for five consecutive days on a three week cycle: adverse events, DLT, MTD; type: in vivo
Procedure: Dosing is by one or two hour intravenous infusion daily for five consecutive days repeated on a three week cycle. […] Response by RECIST is determined after every 2 cycles.

xenograft tumor = assay: Xenograft tumor growth models (preclinical); type: in vivo
[8] = tested on: patients with advanced solid tumors; assay: Phase I study, daily intravenous infusion (one to six hours) on first five days of a three week cycle: adverse events, DLT, MTD; type: in vivo
Source text: Compound A is designed to inhibit over-expressed ribosomal RNA synthesis in cancer cells by disrupting an essential protein-rDNA quadruplex complex thereby inducing selective apoptosis. A Phase I clinical trial for Compound A has been undertaken to determine the dose limiting toxicities (DLTs), maximum tolerated dose (MTD) and pharmacokinetics (PK) of this agent with administration by infusion for about six hours per day.
as §2

CN1CCCC1CCNC(=O)c1cn2c3c(c(N4CCC(c5cnccn5)C4)c(F)cc3c1=O)Oc1cc3ccccc3cc1-2 (stereo not drawn) [Compound A]
drug resistance (Drug resistance in vitro): no drug resistance has been observed
saturability of binding to human blood cells (human blood cells [1]; even at 50 μM): not saturable
binding to human blood cells (human blood cells [1]; human whole blood spiked with 1, 5, 10, and 50 μM): concentration dependent binding
effect on rRNA biogenesis [2]: directly inhibits aberrant rRNA biogenesis
induction of apoptosis (malignant cells): rapidly induces selective apoptosis
permanence of binding to blood cells (human blood cells [3]): easily reversible
duration of stable disease (advanced solid tumors; 10 mg/m^2, one patient with prostate cancer): six
duration of stable disease (advanced solid tumors; 160 mg/m^2 (internal dose escalation from 80 mg/m2), one patient with anorectal cancer): twelve
duration of stable disease (advanced solid tumors; 160 mg/m^2, one patient with liposarcoma): six
cycles completed, patient remains on-study (advanced solid tumors; 240 mg/m^2 (internal dose escalation from 40 mg/m^2), one patient with neuroendocrine islet cell cancer of the pancreas): 26 cycles
patients with stable disease for longer than four months (advanced solid tumors; 42 patients, 10-480 mg/m^2): Four
patients with disease stabilization for longer than one year (advanced solid tumors; 42 patients, continuing on study): one
urinary clearance rate ([4]; calculated from a 12-hour quantitative urine collection): 10 % of the glomerular filtration rate
plasma terminal half life, trend ([4]; patients, Day 5 vs Day 1 and dose escalation): increase with repeated dosing and with each dose level escalation
saturability of blood cell binding ([4]; patients, comparing Day 1 and Day 5): did not appear to be saturable
whole blood concentration relative to plasma concentration ([4]; patients, on Day 1 and on Day 5): approximately ten
accumulation in plasma concentration ([4]; patients, repeated dosing): without significant accumulation
binding to blood cells ([4]; patients, whole blood and plasma specimens): bind reversibly to blood cells
route of elimination ([4]; urine): eliminated unchanged in urine
linearity of PK parameters (AUC) with dose level ([5]; day 1 of dosing, dose cohorts 10-160 mg/m^2): linearity; also recorded: linear pharmacokinetic behavior
half-life ([5]; human, plasma, intravenous, following the first dose (day 1), across all dose levels 10-160 mg/m^2, read-out: plasma terminal half life (converted)): ~10 h
maximum plasma concentration (Cmax), effect of extending infusion ([5]; infusion extended to 2 hours at 160 mg/m^2): decreased
longest period of stable disease to date ([6]; 10-160 mg/m^2): 24 weeks
patients with disease stabilization of longer than / at least four months ([6]; 10-160 mg/m^2, 21 patients): three
patients with stable disease (SD) at evaluation following two cycles ([6]; 10-160 mg/m^2, 21 patients): Six
objective tumor responses ([6]; 10-160 mg/m^2, 21 patients, RECIST after every 2 cycles): No objective tumor responses
median duration of disease stabilization ([6]; six patients with stable disease): 14 weeks
tolerability of doses ([7]; 10, 20, 40, 80 and 160 mg/m^2, one or two hour iv infusion daily x5, three week cycle, 21 patients): well tolerated
drug-related serious adverse events ([7]; 10-160 mg/m^2): No drug-related serious adverse events
grade 3 adverse events deemed related to Compound A ([7]; 10-160 mg/m^2, 21 patients): none
grade 3 adverse events reported during the study ([7]; 10-160 mg/m^2, 21 patients): nine
severity of adverse events deemed at least possibly related to drug ([7]; all studied dose levels 10-160 mg/m^2): grade 1 or 2
maximum tolerated dose (MTD) ([7]; highest dose 160 mg/m^2, one or two hour infusion): not yet been defined
cough during infusion ([7]; one-hour infusion, 160 mg/m^2, resolved spontaneously upon completion of infusion): transient grade 1 cough
cough after extending the infusion duration ([7]; two hour infusion, 160 mg/m^2): the cough resolved
dose limiting toxicities ([7]; up to 160 mg/m^2): no observations to date of dose limiting toxicities
suppression of xenograft tumor growth (xenograft tumor): potency in suppressing xenograft tumor growth with a broad therapeutic window
MTD ([8]; daily iv infusion x5 days, three week cycle, infusion up to six hours): 360 mg/m^2
tolerability ([8]; in vivo): well tolerated
